Legend:
[1] = system: Sprague Dawley rats; assay: Social Recognition Task (subchronic study); format: in vivo, rat; settings: p.o.; for Minimum effective dose: subchronic 7 days, Sprague Dawley rats
From the text: Briefly, Sprague Dawley rats were acclimatized to the CNS-Laboratory-animal holding room for at least 7 days prior to the randomization, under standard housing conditions. The animals were handled and familiarized with the injection procedures during this period. Two days before the experimentation (social interaction trial, SIT1), the rats were randomized in different treatment-groups based on their body weights namely, vehicle (Tween 80 (1%, v/v), Vitamin E TPGS (Speziol®, 10%, v/v) q.s. 100% v/v in milli-Q water; 2 ml/kg, p.o.), scopolamine (0.5 mg/kg, i.p.) and test compound (Compound 1:ranging from 0.05 to 0.50 mg/kg, p.o.).
Seven days before experiment, the vehicle or the test compound was administered to the adult rats once-daily and 1 h before the SIT1 on day-8 in respective treatment-groups. Scopolamine or vehicle was administered 20 min prior to the first social interaction (acquisition, SIT1) trial; scopolamine administration served to induced amnesia. After this treatment, the animals were subjected to the first social interaction (acquisition, SIT1) trial, which was followed by a second (retention, SIT2) trial, 30 min later.
In the case of time-delay induced amnesia paradigm, the vehicle or the test compounds (Compound 1) were administered to the adult rats once-daily for 7 days and 1 h before the SIT1 on day-8, in respective treatment-groups. After this treatment, the animals were subjected to a second (retention, SIT2) trial on day-9. The 24 h inter-trial interval served to induce spontaneous decay of memory and resultant amnesia.
Both the trials (acquisition and retention) were of 5 min duration. The social recognition task was performed in the home-cages made up of transparent polycarbonate. Juvenile rats of 3-4 weeks of age served as subjects for exploration to the adult rats. Adult rats were habituated to the home-cage (without juvenile) for 5 min just before SIT1.
Subject exploration (towards juvenile) was measured as the ‘time spent by the adult animal’ exploring the juvenile rat socially viz. sniffing, following, climbing over or going under or aggression. In order to avoid the confounding olfactory trails, the home-cage was individualized for each adult rat. During the second trial (retention trial, SIT2), adult rats were re-exposed to the same juvenile rat previously introduced earlier in the SIT1. The time of exploration in seconds was recorded for both sessions (SIT1 and SIT2).
Mean and standard error of mean (S.E.M) were determined for the exploration time of each social recognition trial (SIT1, SIT2) and recognition index across the treatment-groups. […]
The recognition index (RI) was calculated using the formula: Recognition index equals(time spent investigating juvenile rat in SIT2/time spent investigating juvenile rat in SIT1). […]

[2] = system: Wistar rats; assay: Novel Object Recognition Task (subchronic study); format: in vivo, rat; settings: p.o.; for Minimum effective dose: subchronic 7 days, Wistar rats
From the text: Briefly, Wistar rats were acclimatized to the CNS-Laboratory-animal holding room for at least 7 days prior to the randomization, under standard housing conditions. Animals were handled and familiarized with the injection procedures during this period. Two days before the experimentation (acquisition trial, T1), rats were randomized in different treatment-groups based on their body weights namely, vehicle (Tween 80 (1%, v/v), Vitamin E TPGS (Speziol®, 10%, v/v) q.s. 100% v/v in milli-Q water, 2 ml/kg, p.o.), scopolamine (1 mg/kg, i.p.) and test compounds (Compound 1: ranging from 0.005 to 0.05 mg/kg, p.o. and compound A:ranging from 0.05 to 0.5 mg/kg, p.o.)
Vehicle or test compounds (Compounds 1 and A) were administered in a single-dose, subchronically for 7 days, and 1 h before the acquisition trial on day-8 in respective treatment-groups. In order to induce cognitive deficits, scopolamine (1 mg/kg) was injected 25 min before the acquisition trial (T1). Acquisition (T1) and Retention (T2) trials were separated by an intertrial interval of 30 min. In the first trial (acquisition trial, T1), the rats were subjected to arena with two identical objects for a period of 5 min and exploration time towards individual object was measured. In retention trial, one of the identical object was replaced with novel object.
In the time-delay induced amnesia paradigm, vehicle or test compounds (Compounds 1 and A) were administered once-daily for 7 days, and 1 h before the acquisition trial (T1) on day-8 in the respective treatment-groups. After this, a second, retention (T2) trial, was conducted on day-9. A 24 h inter-trial interval served to induce spontaneous decay of memory and resultant amnesia in this paradigm.
In the second trial (retention trial, T2), one of the objects presented in T1 was replaced by a novel object, and the rats were left to explore in the arena for 5 min. The time spent exploring the familiar (F) and the novel object (N) was recorded separately. All the animals underwent habituation session of 10 min duration 24 h prior to acquisition trial to get them acclimatized to the test arena. Both the trials (acquisition and retention) were of 5 min duration. The NOR task was performed in the square-open-field boxes (40 cm long×40 cm wide×40 cm high) made up of non-reflective PVC sheets with black surrounding walls and light gray floor. Colored plastic and glass bottles of different size, shapes and texture, served as object of exploration.
Object exploration was measured as the ‘time spent by the animal’ directing its nose at a distance 2 cm to the object or touching and exploring it. Time spent climbing on the object was not accounted as object exploration. In order to avoid the presence of olfactory trails, the test boxes and objects were always thoroughly cleaned between trials of individual animals.
Mean and standard error of the mean (S.E.M.) was calculated for the exploration time of each identical objects in T1, novel and familiar objects in T2 and discrimination index across the treatment groups. Exploration time within groups was compared with Student's paired t-test. Discrimination index was compared between groups by One-way ANOVA with Dunnett's post hoc test in comparison to the scopolamine-treated group or vehicle-treated group as per the paradigm. Discrimination index was compared between groups by unpaired t-test in comparison to the vehicle-treated group. p<0.05 was considered as significant. All statistical comparisons were performed using GraphPad Prism version 5.00 for Windows, GraphPad Software, San Diego Calif. USA.
The discrimination index (DI) was calculated based on explorations in T2 trial, using the formula.
Discrimination Index equals (time spent investigating novel object−time spent investigating familiar object)/(time spent investigating novel object+time spent investigating familiar object). […] All the experimental recordings were carried out by manual observation of animals by trained scientists. […]

[3] = Time-delay induced amnesia (24 h)

Cc1c(-c2ccc(S(N)(=O)=O)cc2)c(C(=O)CC2CC2)n(C)c1-c1ccc(Cl)cc1 [Compound 1, 4-(5-(4-chlorophenyl)-2-(2-cyclopropylacetyl)-1,4-dimethyl-1H-pyrrol-3-yl)benzenesulfonamide]
recognition index (RI) as compared to vehicle-treated group ([1]; 24 h time delay-induced amnesia, subchronic (7 day) 0.05 mg/Kg, FIG. 2A): significantly decreased | Minimum effective dose ([1]; Scopolamine induced amnesia): 0.015 mg/kg | recognition index (RI) as compared to scopolamine treated group ([1]; Scopolamine-induced amnesia, subchronic (7 day) 0.05 mg/Kg, FIG. 2B): significantly decreased | Minimum effective dose [1, 3]: 0.05 mg/kg | discrimination index as compared to vehicle-treated group ([2]; 24 h time delay-induced amnesia, subchronic (7 day) 0.05 mg/Kg, FIG. 1A): significantly increased | Minimum effective dose ([2]; Scopolamine induced amnesia): 0.015 mg/kg | discrimination index as compared to scopolamine treated group ([2]; Scopolamine-induced amnesia, subchronic (7 day) 0.05 mg/Kg, FIG. 1B): significantly increased | Minimum effective dose [2, 3]: 0.015 mg/kg

CCC(=O)c1c(-c2ccc(S(N)(=O)=O)cc2)c(C)c(-c2ccc(Cl)cc2)n1C [Compound A, 4-(5-(4-chlorophenyl)-1,4-dimethyl-2-propionyl-1H-pyrrol-3-yl)benzenesulfonamide, reference compound]
Minimum effective dose ([2]; Scopolamine induced amnesia): >0.5 mg/kg | Minimum effective dose [2, 3]: 0.15 mg/kg

From patent publication US9447037B2, “4-(5-(4-chlorophenyl)-2-(2-cyclopropylacetyl)-1,4-dimethyl-1H-pyrrol-3-yl)benzenesulfonamide as alpha 7 nAChR modulator” (Lupin Limited, priority 2013, dated 2016)
